Measured values published in patent EP3943081A1, “OPTIC NEUROPATHY TREATMENT AND REDUCTION OF STEROID- INDUCED OXIDATIVE STRESS WITH STABILIZED POLYUNSATURATED SUBSTANCES” (Retrotope, Inc., priority 2014, dated 2015).

Tests used:
[1] = test system: Dhcr7-deficient Neuro2a neuroblastoma cells; test: Oxysterol levels in Dhcr7-deficient Neuro2a neuroblastoma cells treated with fatty acid; assay type: cell-based; conditions: for levels of oxysterols associated with free radical induced oxidation: 20 micromolar, Dhcr7 expression depleted by RNA interference, 7-DHC accumulates
Description: Dhcr7-deficient Neuro2a neuroblastoma cells were treated with D2-linoleic acid, and non-deuterated linoleic acid ("Lin") was used in a control experiment. The level of Dhcr7 gene expression was depleted by RNA interference, leading to accumulation of 7-DHC in the cells. 7-DHC is 1-2 orders of magnitude more oxidizeable than linoleic acid, and so can easily initiate lipid peroxidation (See Yin et al., "Free Radical Lipid Peroxidation: Mechanisms and Analysis," Chem Rev. (2011), 111(10), 5944-5972).

[2] = test system: Q-less (coq2, coq3, and coq5) yeast mutants; conditions: cited from earlier work; for sensitivity of Q-less yeast to treatment: compared with the wild-type parental strain
[3] = test system: wild-type (the parental genetic background is strain W303-1B) cells; conditions: following a four hour treatment; 240 min; cited from earlier work

| Structure (SMILES) | levels of oxysterols associated with free radical induced oxidation [1] | sensitivity of Q-less yeast to treatment [2] | also measured |
| --- | --- | --- | --- |
| [2H]C([2H])(/C=C\CCCCC)/C=C\CCCCCCCC(=O)O [D2-Lin, 11,11-Dideutero-cis,cis-9,12-Octadecadienoic acid] | low levels | – | oxidative stress ([1]; 20 micromolar (same concentration as Lin), judged by oxysterol levels): did not induce oxidative stress |
| CCCCC/C=C\C/C=C\CCCCCCCC(=O)O [Lin, cis, cis-9,12-Octadecadienoic acid] | substantially increased | – | – |
| CCCCC/C=C\C/C=C\C/C=C\C/C=C\CCCC(=O)O [arachidonic acid] | – | hypersensitive | – |
| CC/C=C\C/C=C\C/C=C\CCCCCCCC(=O)O [linolenic acid, cis,cis,cis-9,12,15-Octadecatrienoic acid] | – | – | viable wild-type cells [3]: 70%; viable Q-less yeast mutants ([2]; following a four hour treatment, 240 min): Less than 1% |
| CCCCCCCC/C=C\CCCCCCCC(=O)O [oleic acid] | – | behave the same as the wild-type parental strain | – |
